From patent US8501770B2 (ArQule, Inc., priority 2009, dated 2013) come the findings set out here.

Sequence of Full-length inactive AKT1 (P31749 whole entry): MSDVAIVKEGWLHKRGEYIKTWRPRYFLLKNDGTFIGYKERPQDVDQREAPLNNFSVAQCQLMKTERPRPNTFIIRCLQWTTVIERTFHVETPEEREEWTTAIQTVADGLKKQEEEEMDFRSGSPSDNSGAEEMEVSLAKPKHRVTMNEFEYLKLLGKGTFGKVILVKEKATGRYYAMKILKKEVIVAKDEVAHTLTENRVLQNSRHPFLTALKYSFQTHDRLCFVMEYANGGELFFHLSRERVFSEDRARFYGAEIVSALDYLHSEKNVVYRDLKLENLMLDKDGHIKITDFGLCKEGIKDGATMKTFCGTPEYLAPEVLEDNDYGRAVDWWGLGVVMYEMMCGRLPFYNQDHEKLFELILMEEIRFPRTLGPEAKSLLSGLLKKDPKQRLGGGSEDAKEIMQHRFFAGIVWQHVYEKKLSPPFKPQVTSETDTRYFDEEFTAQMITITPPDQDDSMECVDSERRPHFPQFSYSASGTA

The experiment deals with Full-length inactive AKT1 (Homo sapiens, UniProt P31749). The experiment can be described thus: Inactive Akt Alpha Screen Assay. Type of experiment: biochemical. To be noted: values not marked with "*"; read-out: Akt1 IC50, (AlphaScreen). In short, it runs like this:
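AlphaScreen read-out (excitation 640 nm, emission 570 nm) after 90 min incubation at room temperature in the dark. Signal comes from crosstide phosphorylation by AKT1, which was activated by added PDK1, MAPKAPK2, ATP and lipid vesicles, captured via phospho-AKT substrate antibody and streptavidin beads.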
In general terms: In Alpha technology, singlet oxygen from a donor bead excites a nearby acceptor bead.
Take `CC(=O)Nc1ccc(C(=O)NCc2ccc(-n3c(-c4cccnc4N)nc4cc(-c5cccnc5)cnc43)cc2)cc1` [Example 238, 4-acetamido-N-(4-(2-(2-aminopyridin-3-yl)-6-(pyridin-3-yl)-3H-imidazo[4,5-b]pyridin-3-yl)benzyl)benzamide]: the IC50 was found to be 42 nM. The value for `Nc1ncccc1-c1nc2cc(-c3cccnc3)cnc2n1-c1ccc(CNC(=O)c2cccc(F)c2)cc1` [Example 239, N-(4-(2-(2-aminopyridin-3-yl)-6-(pyridin-3-yl)-3H-imidazo[4,5-b]pyridin-3-yl)benzyl)-3-fluorobenzamide] was 21 nM; that for `Nc1ncccc1-c1nc2cc(-c3ccc(C(=O)O)o3)cnc2n1-c1ccc(CNC(=O)c2ccccc2)cc1` [Example 240, 5-(2-(2-aminopyridin-3-yl)-3-(4-(benzamidomethyl)phenyl)-3H-imidazo[4,5-b]pyridin-6-yl)furan-2-carboxylic acid] was 16 nM; that for `CCOC(=O)Cc1ccc(-n2c(-c3cccnc3N)nc3ccc(Cl)nc32)cc1` [Example 241, ethyl 2-(4-(2-(2-aminopyridin-3-yl)-5-chloro-3H-imidazo[4,5-b]pyridin-3-yl)phenyl)acetate] was 330 nM. The value for `CCOC(=O)Cc1ccc(-n2c(-c3cccnc3N)nc3ccc(-c4cccnc4)nc32)cc1` [Example 242, ethyl 2-(4-(2-(2-aminopyridin-3-yl)-5-(pyridin-3-yl)-3H-imidazo[4,5-b]pyridin-3-yl)phenyl)acetate] was 64 nM. Regarding `CCOC(=O)Cc1ccc(-n2c(-c3cccnc3N)nc3ccc(-c4cccc(NC(C)=O)c4)nc32)cc1` [Example 243, ethyl 2-(4-(5-(3-acetamidophenyl)-2-(2-aminopyridin-3-yl)-3H-imidazo[4,5-b]pyridin-3-yl)phenyl)acetate], the half-inhibitory concentration (IC50) came to 320 nM.

Turning to `Cc1ccc2cc(C(=O)NCc3ccc(-n4c(-c5cccnc5N)nc5cc(-c6cccnc6)cnc54)cc3)ccc2n1` [Example 244, N-(4-(2-(2-aminopyridin-3-yl)-6-(pyridin-3-yl)-3H-imidazo[4,5-b]pyridin-3-yl)benzyl)-2-methylquinoline-6-carboxamide], the IC50 was found to be 22 nM. The value for `Cc1ccc2nc(-c3cccnc3N)n(-c3ccc(CNC(=O)c4ccc(C(C)C)cc4)cc3)c2n1` [Example 245, N-(4-(2-(2-aminopyridin-3-yl)-5-methyl-3H-imidazo[4,5-b]pyridin-3-yl)benzyl)-4-isopropylbenzamide] was 14 nM. For the compound `Cc1ccc2nc(-c3cccnc3N)n(-c3ccc(CNC(=O)c4ccccc4)cc3)c2n1` [Example 246, N-(4-(2-(2-aminopyridin-3-yl)-5-methyl-3H-imidazo[4,5-b]pyridin-3-yl)benzyl)benzamide], the IC50 is 20 nM.

Turning to `Cc1ccc2nc(-c3cccnc3N)n(-c3ccc(CNC(=O)c4cccc(F)c4)cc3)c2n1` [Example 247, N-(4-(2-(2-aminopyridin-3-yl)-5-methyl-3H-imidazo[4,5-b]pyridin-3-yl)benzyl)-3-fluorobenzamide], the half-inhibitory concentration (IC50) was found to be 16 nM.

As to `CC(=O)Nc1cccc(C(=O)NCc2ccc(-n3c(-c4cccnc4N)nc4ccc(C)nc43)cc2)c1` [Example 248, 3-acetamido-N-(4-(2-(2-aminopyridin-3-yl)-5-methyl-3H-imidazo[4,5-b]pyridin-3-yl)benzyl)benzamide], the IC50 is 28 nM.

For `CC(=O)Nc1ccc(C(=O)NCc2ccc(-n3c(-c4cccnc4N)nc4ccc(C)nc43)cc2)cc1` [Example 249, 4-acetamido-N-(4-(2-(2-aminopyridin-3-yl)-5-methyl-3H-imidazo[4,5-b]pyridin-3-yl)benzyl)benzamide], the IC50 came to 25 nM. The value for `CC(C)(C)OC(=O)NCc1ccc(-n2c(-c3cccnc3N)nc3cc(-c4cccnc4)cnc32)cc1` [Example 250, tert-butyl 4-(2-(2-aminopyridin-3-yl)-6-(pyridin-3-yl)-3H-imidazo[4,5-b]pyridin-3-yl)benzylcarbamate] was 200 nM; that for `Cn1cccc1C(=O)NCc1ccc(-n2c(-c3cccnc3N)nc3cc(-c4cccnc4)cnc32)cc1` [Example 252, N-(4-(2-(2-aminopyridin-3-yl)-6-(pyridin-3-yl)-3H-imidazo[4,5-b]pyridin-3-yl)benzyl)-1-methyl-1H-pyrrole-2-carboxamide] was 170 nM.

As to `CC(=O)Nc1ccc(-c2ccc3nc(-c4cccnc4N)n(-c4ccc(NC(=O)c5ccccc5)cc4)c3n2)cc1` [Example 253, N-(4-(5-(4-acetamidophenyl)-2-(2-aminopyridin-3-yl)-3H-imidazo[4,5-b]pyridin-3-yl)phenyl)benzamide], the IC50 came to 27 nM.

Take `Nc1ncccc1-c1nc2ccc(-c3ccccc3)nc2n1-c1ccc(NC(=O)c2ccccc2)cc1` [Example 254, N-(4-(2-(2-aminopyridin-3-yl)-5-phenyl-3H-imidazo[4,5-b]pyridin-3-yl)phenyl)benzamide]: the IC50 stood at 82 nM. The value for `Nc1ncccc1-c1nc2ccc(-c3cccnc3)nc2n1-c1ccc(NC(=O)c2ccccc2)cc1` [Example 255, N-(4-(2-(2-aminopyridin-3-yl)-5-(pyridin-3-yl)-3H-imidazo[4,5-b]pyridin-3-yl)phenyl)benzamide] was 12 nM; that for `Nc1ncccc1-c1nc2ccc(-c3ccncc3)nc2n1-c1ccc(NC(=O)c2ccccc2)cc1` [Example 256, N-(4-(2-(2-aminopyridin-3-yl)-5-(pyridin-4-yl)-3H-imidazo[4,5-b]pyridin-3-yl)phenyl)benzamide] was 19 nM. The figure for `Nc1ncccc1-c1nc2ccc(-c3cccnc3)nc2n1-c1ccc(CC(=O)Nc2ccccc2)cc1` [Example 257, 2-(4-(2-(2-aminopyridin-3-yl)-5-(pyridin-3-yl)-3H-imidazo[4,5-b]pyridin-3-yl)phenyl)-N-phenylacetamide] is 46 nM. The figure for `CC(=O)Nc1cccc(NC(=O)Cc2ccc(-n3c(-c4cccnc4N)nc4ccc(-c5cccnc5)nc43)cc2)c1` [Example 258, N-(3-acetamidophenyl)-2-(4-(2-(2-aminopyridin-3-yl)-5-(pyridin-3-yl)-3H-imidazo[4,5-b]pyridin-3-yl)phenyl)acetamide] is 17 nM; for `CC(=O)Nc1ccc(-c2ccc3nc(-c4cccnc4N)n(-c4ccc(CNC(=O)OC(C)(C)C)cc4)c3n2)cc1` [Example 259, tert-butyl 4-(5-(4-acetamidophenyl)-2-(2-aminopyridin-3-yl)-3H-imidazo[4,5-b]pyridin-3-yl)benzylcarbamate] it is 530 nM. Regarding `Cc1ccc2cc(NC(=O)Cc3ccc(-n4c(-c5cccnc5N)nc5ccc(-c6cccnc6)nc54)cc3)ccc2n1` [Example 260, 2-(4-(2-(2-aminopyridin-3-yl)-5-(pyridin-3-yl)-3H-imidazo[4,5-b]pyridin-3-yl)phenyl)-N-(2-methylquinolin-6-yl)acetamide], the IC50 came to 14 nM. Turning to `Cc1ccc2nc(-c3cccnc3N)n(-c3ccc(CNC(=O)c4cccn4C)cc3)c2n1` [Example 262, N-(4-(2-(2-aminopyridin-3-yl)-5-methyl-3H-imidazo[4,5-b]pyridin-3-yl)benzyl)-1-methyl-1H-pyrrole-2-carboxamide], the half-inhibitory concentration (IC50) worked out at 150 nM. The figure for `Cc1ccc2cc(C(=O)NCc3ccc(-n4c(-c5cccnc5N)nc5ccc(C)nc54)cc3)ccc2n1` [Example 263, N-(4-(2-(2-aminopyridin-3-yl)-5-methyl-3H-imidazo[4,5-b]pyridin-3-yl)benzyl)-2-methylquinoline-6-carboxamide] is 110 nM.

The term IC50 denotes the midpoint of a concentration-inhibition curve.
